Activity calls are given as the source filed them.
Experiments:
[1] = Luminescence Cell-Based Dose Confirmation HTS to Identify Activators of 5'UTR Stem-Loop Driven Alpha-Synuclein mRNA Translation in H4 Neuroglioblastoma Cells. [Related pubchem assays: 1829 (Project Summary), 1814 (Primary HTS)]; type: functional
[2] = Luminescence Cell-Based Dose Response HTS to Identify Activators of Luciferase Translation or Activity in H4 […] Cells. [Related pubchem assays: 1829 (Project Summary), 1814 (Primary HTS)]; type: functional
[3] = tested on: H4; experiment: Luminescence Cell-Based Dose Response HTS to Identify Activators of 5'UTR Stem-Loop Driven Prion Protein mRNA Translation in H4 Neuroglioblastoma Cells. [Related pubchem assays: 1829 (Project Summary), 1814 (Primary HTS)]; type: functional; details: Homo sapiens
[4] = tested on: HeLa; experiment: HeLa cell cytotoxicity, dose response, cytotoxicity control for MITF activator project, CellTiter-Glo luminescence, cherry-pick samples (AID 540259); type: functional, cell-based; details: Homo sapiens
[5] = target: T1, Oxysterols receptor LXR-beta (Homo sapiens, UniProt P55055); type: functional, cell-based;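 further: agonist activity at LXR measured by a cell-based luminescence readout across a dose range, run as a counterscreen for daf-12 agonists; HEK293 cells with Gal4-LXR fusion and GAL4-driven luciferase reporter; potency for activation of Gal4-LXR reporter so compounds are agonists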
T1 sequence (P55055 whole entry): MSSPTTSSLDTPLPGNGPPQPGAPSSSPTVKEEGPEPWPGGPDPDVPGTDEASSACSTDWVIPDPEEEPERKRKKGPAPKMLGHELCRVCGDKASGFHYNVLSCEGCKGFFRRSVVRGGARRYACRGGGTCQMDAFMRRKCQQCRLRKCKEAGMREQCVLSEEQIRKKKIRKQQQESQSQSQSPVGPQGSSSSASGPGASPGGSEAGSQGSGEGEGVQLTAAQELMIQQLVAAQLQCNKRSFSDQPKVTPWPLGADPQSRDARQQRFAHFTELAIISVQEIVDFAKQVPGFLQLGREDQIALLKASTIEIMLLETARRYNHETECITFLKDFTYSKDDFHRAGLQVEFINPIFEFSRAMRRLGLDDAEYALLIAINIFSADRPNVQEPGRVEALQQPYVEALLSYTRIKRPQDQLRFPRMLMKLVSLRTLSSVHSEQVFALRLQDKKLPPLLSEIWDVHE

[6] = tested on: Streptococcus sp. 'group A'; experiment: growth inhibition of control SK(-) GAS strain, dose response, counter-screen for streptokinase expression inhibitor project, luminescence, kanamycin, BacTiterGlo, confirmation (AID 1900); type: functional, organism-based
[7] = target: T2, Streptokinase A (Streptococcus pyogenes serotype M1, UniProt P10520); experiment: S. pyogenes streptokinase expression inhibitors, potency, dose response, plasminogen activation absorbance, OD405 (AID 1914); type: functional, Streptococcus pyogenes M1 GAS;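 further: secreted streptokinase activity via plasminogen activation per viability signal from cell pellet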
T2 sequence (P10520 whole entry): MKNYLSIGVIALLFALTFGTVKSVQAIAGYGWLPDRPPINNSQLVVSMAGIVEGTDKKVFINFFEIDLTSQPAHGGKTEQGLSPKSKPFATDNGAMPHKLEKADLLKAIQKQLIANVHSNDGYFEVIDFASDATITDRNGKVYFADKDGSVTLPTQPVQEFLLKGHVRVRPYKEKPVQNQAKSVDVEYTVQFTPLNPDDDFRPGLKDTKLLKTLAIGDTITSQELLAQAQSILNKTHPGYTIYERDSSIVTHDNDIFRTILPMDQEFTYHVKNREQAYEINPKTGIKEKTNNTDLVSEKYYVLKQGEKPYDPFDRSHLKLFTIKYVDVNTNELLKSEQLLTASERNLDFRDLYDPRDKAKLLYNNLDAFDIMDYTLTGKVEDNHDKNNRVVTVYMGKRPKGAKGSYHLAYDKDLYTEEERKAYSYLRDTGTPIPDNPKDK

[8] = tested on: Streptococcus; experiment: Group A Streptococcus viability loss, dose response, counter-screen for streptokinase expression inhibitor project, luminescence, BacTiterGlo (AID 1915); type: functional, organism-based;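 further: potency for reduction of bacterial viability or growth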
[9] = target: T3, Caspase-3 (Homo sapiens, UniProt P42574); type: functional;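 further: Dose-response selectivity test against caspase-3 for candidate inhibitors of sentrin-specific proteases (SENPs)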
T3 sequence (P42574 whole entry): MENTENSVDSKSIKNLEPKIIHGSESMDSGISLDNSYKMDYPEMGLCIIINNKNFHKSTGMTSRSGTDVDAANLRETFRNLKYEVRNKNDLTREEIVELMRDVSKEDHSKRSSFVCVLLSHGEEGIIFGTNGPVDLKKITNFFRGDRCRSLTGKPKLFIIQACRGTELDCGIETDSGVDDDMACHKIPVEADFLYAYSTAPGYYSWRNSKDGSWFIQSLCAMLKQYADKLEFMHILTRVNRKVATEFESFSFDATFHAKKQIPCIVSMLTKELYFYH

[10] = target: T4, Sentrin-specific protease 7 (Homo sapiens, UniProt Q9BQF6); type: functional;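 further: Luminescence-based dose-response confirmation of ultra-high-throughput screening hits, measuring inhibition of SENP7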
T4 sequence (Q9BQF6 whole entry): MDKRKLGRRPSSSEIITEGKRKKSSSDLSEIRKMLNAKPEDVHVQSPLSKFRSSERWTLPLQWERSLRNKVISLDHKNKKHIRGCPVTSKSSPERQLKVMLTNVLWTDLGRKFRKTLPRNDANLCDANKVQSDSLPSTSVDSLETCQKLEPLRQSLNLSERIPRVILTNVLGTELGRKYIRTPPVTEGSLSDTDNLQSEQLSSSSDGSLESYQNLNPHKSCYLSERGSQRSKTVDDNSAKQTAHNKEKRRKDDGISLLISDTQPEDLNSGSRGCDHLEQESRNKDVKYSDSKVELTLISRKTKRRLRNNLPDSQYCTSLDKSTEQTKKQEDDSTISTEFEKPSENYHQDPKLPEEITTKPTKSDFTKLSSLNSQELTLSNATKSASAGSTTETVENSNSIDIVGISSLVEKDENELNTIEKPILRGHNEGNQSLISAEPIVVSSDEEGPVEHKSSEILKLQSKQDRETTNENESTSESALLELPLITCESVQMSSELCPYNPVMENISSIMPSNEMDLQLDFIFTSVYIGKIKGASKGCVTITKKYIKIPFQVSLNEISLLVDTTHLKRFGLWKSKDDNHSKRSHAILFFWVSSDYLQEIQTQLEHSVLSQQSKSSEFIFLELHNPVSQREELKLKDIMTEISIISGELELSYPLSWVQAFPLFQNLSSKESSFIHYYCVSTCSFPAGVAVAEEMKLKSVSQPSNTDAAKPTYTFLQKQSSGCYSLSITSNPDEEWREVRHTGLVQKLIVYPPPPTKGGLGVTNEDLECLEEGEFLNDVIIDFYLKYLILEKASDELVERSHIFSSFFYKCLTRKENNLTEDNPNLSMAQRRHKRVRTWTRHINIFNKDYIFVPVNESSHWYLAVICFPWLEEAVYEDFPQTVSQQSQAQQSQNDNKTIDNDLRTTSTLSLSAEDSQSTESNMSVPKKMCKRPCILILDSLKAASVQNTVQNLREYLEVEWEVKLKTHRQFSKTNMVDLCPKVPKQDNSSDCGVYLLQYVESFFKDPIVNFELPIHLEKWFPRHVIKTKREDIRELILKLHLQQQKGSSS

[11] = target: T5, Sentrin-specific protease 6 (Homo sapiens, UniProt Q9GZR1); type: functional;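 further: Luminescence-based dose-response confirmatory assay of SENP6 inhibition, following up an ultra-high-throughput screen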
T5 sequence (Q9GZR1 whole entry): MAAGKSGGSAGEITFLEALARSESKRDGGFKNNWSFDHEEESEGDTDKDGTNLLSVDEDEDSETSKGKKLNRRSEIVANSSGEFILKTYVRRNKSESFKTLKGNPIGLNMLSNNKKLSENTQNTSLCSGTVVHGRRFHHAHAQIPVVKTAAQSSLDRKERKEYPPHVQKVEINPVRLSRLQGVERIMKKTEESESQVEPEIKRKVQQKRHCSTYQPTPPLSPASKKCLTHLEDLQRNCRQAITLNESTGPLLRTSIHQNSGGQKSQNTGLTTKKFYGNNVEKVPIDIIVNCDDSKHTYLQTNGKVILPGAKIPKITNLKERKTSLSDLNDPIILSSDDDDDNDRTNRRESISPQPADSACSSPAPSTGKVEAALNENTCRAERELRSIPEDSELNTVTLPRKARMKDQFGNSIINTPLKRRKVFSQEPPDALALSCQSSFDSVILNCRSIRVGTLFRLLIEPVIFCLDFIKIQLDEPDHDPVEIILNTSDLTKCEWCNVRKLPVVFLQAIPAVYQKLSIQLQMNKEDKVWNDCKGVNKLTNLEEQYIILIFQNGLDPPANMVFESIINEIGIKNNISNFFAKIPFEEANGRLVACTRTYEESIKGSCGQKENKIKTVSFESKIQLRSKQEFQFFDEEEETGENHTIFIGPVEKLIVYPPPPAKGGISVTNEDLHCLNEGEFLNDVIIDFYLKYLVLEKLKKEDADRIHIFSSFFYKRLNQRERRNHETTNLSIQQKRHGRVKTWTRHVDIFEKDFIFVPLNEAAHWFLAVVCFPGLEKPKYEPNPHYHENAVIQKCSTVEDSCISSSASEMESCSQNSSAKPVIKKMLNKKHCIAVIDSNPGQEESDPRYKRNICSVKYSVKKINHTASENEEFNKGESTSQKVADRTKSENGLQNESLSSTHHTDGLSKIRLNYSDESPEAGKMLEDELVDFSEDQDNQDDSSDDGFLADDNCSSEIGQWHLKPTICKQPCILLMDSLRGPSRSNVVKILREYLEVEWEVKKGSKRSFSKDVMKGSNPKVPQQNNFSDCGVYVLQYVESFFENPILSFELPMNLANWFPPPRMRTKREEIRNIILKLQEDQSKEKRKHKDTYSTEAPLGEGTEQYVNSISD

[12] = target: T6, Sentrin-specific protease 8 (Homo sapiens, UniProt Q96LD8); type: functional;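 further: luminescence read-out of SENP8 inhibition, dose-response confirmation following an ultra-high-throughput screen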
T6 sequence (Q96LD8 whole entry): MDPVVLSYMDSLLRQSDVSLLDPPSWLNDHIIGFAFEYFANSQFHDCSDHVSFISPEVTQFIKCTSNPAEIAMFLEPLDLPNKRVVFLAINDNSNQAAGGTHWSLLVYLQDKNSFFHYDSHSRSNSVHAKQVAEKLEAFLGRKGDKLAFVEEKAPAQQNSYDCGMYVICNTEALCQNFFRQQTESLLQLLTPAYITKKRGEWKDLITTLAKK

[13] = target: T7, Insulin-degrading enzyme (Homo sapiens, UniProt P14735); experiment: activators of recombinant IDE enzyme, dose response, counter-screen for IDE activator project, biochemical, fluorescence polarization (AID 588681)
T7 sequence (P14735 whole entry): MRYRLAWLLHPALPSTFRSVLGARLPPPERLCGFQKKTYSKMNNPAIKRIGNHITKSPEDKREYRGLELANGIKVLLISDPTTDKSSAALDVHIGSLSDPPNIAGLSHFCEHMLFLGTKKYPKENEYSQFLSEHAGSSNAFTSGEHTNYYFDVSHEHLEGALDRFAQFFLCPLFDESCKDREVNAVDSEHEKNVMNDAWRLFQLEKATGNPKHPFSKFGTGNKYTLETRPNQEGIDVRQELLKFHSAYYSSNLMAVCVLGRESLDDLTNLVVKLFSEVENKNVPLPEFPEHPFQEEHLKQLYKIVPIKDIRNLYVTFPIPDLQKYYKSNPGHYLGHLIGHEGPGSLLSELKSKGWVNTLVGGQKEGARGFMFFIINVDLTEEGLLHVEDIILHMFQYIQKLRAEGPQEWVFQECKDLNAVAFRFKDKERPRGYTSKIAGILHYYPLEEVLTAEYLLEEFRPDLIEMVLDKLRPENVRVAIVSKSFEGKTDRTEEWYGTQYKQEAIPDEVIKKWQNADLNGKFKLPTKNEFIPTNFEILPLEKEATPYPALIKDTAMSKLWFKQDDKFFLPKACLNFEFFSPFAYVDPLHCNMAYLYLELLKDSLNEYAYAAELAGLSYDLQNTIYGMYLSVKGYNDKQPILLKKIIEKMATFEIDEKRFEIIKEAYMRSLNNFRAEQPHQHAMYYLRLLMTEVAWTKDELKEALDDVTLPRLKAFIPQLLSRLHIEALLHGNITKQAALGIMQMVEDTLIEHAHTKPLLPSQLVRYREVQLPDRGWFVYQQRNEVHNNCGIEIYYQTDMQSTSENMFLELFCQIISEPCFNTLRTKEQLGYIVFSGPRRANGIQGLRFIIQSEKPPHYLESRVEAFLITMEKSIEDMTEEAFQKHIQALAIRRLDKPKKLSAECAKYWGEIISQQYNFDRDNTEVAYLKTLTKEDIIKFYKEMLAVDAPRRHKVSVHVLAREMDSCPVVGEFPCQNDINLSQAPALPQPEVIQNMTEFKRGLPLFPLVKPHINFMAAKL

[14] = target: T7, Insulin-degrading enzyme; experiment: activators of endogenous IDE in HEK cells, dose response, cell-based, fluorescence polarization (AID 588439); type: functional
[15] = tested on: HEK293; experiment: HEK cell cytotoxicity by LDH release, dose response, cytotoxicity control for IDE activator project, fluorescence, HEK cells (AID 588440); type: functional, cell-based; details: Homo sapiens;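 further: cytotoxicity by LDH release measuring loss of membrane integrity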
[16] = tested on: HEK293; experiment: optical interference in Abeta FP readout, dose response, artefact control for IDE activator project, biochemical, fluorescence polarization (AID 588442); type: functional, cell-based; details: Homo sapiens

SMILES	EC50 [1]	EC50 [2]	EC50 [3]	AC50 [4]	EC50 [5]	EC50 [6]	EC50 [7]	EC50 [8]	IC50 [9]	IC50 [10]	IC50 [11]	IC50 [12]	EC50 [13]	EC50 [14]	IC50 [15]	EC50 [16]
Cc1nn(C(=O)c2cccs2)c(N)c1-c1ccccc1	13.7 µM (active)	19 µM (active)	> 120 µM (not active)	30.1 µM (active)	> 67.5 µM (inactive)	–	–	–	–	–	–	–	–	–	–	–
Cc1csc2nc(CSc3nc4ccccc4o3)c(Br)n12	–	–	–	42.3 µM (active)	–	45.5 µM (active)	> 150 µM (not active)	> 150 µM (not active)	49.4 µM (active)	16.2 µM (active)	12.5 µM (active)	> 100 µM (inactive)	–	–	–	–
O=C(NCCSc1ccc(Br)cc1)c1ccc2[nH]cnc2c1	–	–	–	–	–	–	–	–	–	–	–	–	> 54.7 µM (inactive)	> 54.7 µM (inactive)	> 89.3 µM (inactive)	> 56 µM (inactive)
